Laboratory results as given in ChEMBL document CHEMBL4680299 (Bioorg Med Chem Lett, 2021).

Assays:
[1] = molecular target: Metabotropic glutamate receptor 7 (Homo sapiens, UniProt Q14831); assay: Positive allosteric modulation of human mGluR7 in presence of EC20 concentration of L-AP4 by calcium mobilization assay; type: functional
[2] = molecular target: Metabotropic glutamate receptor 1 (Homo sapiens, UniProt Q13255); assay: Positive allosteric modulation of human mGluR1 in presence of EC20 concentration of glutamate by calcium mobilization assay; type: functional
Metabotropic glutamate receptor 1, sequence (Q13255 whole entry): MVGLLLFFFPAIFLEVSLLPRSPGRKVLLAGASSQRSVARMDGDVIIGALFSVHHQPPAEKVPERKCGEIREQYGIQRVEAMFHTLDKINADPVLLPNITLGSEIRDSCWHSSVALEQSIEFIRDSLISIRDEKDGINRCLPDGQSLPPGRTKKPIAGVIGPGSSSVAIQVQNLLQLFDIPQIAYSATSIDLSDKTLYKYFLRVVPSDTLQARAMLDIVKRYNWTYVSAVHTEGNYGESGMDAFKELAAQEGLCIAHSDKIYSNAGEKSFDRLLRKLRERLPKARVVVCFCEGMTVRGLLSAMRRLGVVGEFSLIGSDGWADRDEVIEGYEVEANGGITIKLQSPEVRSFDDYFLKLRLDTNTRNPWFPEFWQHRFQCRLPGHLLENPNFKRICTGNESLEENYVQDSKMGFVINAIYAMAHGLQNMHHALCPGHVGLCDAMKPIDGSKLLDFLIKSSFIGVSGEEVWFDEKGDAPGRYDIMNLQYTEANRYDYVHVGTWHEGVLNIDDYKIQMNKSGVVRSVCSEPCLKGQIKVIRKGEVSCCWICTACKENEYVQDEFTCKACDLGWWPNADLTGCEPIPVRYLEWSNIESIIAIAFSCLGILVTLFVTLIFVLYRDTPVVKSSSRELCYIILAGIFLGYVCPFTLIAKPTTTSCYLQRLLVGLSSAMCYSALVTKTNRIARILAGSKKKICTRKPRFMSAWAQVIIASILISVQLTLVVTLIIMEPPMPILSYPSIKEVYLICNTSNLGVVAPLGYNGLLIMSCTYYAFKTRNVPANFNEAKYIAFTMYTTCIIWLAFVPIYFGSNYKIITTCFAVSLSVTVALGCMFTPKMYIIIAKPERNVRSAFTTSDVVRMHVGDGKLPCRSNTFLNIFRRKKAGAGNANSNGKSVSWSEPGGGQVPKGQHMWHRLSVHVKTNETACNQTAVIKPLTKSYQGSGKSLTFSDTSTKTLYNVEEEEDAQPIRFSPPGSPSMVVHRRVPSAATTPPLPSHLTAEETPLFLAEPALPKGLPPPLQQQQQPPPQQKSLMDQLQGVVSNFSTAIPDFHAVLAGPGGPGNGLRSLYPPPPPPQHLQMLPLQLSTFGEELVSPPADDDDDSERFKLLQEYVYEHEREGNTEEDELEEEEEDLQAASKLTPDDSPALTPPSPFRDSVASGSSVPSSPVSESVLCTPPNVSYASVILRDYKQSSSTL

[3] = molecular target: Metabotropic glutamate receptor 4 (Homo sapiens, UniProt Q14833); assay: Positive allosteric modulation of human mGluR4 by calcium mobilization assay; type: functional
Metabotropic glutamate receptor 4, sequence (Q14833 whole entry): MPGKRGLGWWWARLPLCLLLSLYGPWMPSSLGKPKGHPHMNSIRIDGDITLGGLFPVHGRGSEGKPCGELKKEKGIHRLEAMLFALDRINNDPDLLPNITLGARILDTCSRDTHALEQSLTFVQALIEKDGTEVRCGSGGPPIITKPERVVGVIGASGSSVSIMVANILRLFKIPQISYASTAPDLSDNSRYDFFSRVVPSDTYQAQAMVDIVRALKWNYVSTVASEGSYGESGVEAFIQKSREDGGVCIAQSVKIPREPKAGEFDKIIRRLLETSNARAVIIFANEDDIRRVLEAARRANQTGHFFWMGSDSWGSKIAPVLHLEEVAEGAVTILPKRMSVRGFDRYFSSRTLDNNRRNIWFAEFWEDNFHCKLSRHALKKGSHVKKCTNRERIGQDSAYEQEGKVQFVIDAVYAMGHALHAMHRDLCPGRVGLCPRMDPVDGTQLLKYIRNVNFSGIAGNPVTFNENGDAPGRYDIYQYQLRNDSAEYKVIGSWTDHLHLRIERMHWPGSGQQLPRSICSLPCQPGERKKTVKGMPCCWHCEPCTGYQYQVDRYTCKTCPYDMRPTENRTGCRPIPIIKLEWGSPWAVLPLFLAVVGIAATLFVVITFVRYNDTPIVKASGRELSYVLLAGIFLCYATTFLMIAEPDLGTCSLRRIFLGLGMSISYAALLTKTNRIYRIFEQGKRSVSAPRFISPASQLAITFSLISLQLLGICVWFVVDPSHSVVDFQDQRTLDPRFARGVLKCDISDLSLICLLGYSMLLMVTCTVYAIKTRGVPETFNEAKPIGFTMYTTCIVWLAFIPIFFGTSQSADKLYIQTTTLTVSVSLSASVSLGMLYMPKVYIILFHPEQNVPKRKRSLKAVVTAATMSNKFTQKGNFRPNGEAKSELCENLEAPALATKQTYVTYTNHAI

[4] = molecular target: Metabotropic glutamate receptor 6 (Homo sapiens, UniProt O15303); assay: Positive allosteric modulation of mGluR6 (unknown origin) by calcium mobilization assay; type: functional
Metabotropic glutamate receptor 6, sequence (O15303 whole entry): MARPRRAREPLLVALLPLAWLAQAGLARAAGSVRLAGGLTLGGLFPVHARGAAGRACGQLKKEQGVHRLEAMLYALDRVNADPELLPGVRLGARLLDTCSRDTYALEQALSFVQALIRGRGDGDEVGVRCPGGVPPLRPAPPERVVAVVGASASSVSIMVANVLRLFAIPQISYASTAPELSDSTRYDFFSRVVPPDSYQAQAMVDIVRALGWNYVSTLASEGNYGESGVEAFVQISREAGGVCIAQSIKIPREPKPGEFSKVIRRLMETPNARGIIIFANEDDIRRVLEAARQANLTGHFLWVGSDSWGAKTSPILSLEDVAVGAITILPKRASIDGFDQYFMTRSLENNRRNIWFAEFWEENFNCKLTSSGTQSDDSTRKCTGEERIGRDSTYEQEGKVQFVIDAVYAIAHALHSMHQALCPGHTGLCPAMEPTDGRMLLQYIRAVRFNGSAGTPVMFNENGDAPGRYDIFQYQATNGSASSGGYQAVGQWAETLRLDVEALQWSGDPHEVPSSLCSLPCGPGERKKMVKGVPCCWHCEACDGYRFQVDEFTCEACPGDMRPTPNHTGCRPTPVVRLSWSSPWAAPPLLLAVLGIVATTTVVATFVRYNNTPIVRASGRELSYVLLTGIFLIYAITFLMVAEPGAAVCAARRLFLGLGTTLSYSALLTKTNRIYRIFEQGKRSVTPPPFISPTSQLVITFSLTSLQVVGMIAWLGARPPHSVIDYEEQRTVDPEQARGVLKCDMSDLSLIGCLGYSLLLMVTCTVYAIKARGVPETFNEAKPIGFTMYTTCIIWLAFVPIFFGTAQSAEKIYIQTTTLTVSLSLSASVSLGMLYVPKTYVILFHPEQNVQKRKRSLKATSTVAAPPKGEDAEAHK

[5] = molecular target: Metabotropic glutamate receptor 5 (Homo sapiens, UniProt P41594); assay: Positive allosteric modulation of mGluR5 (unknown origin) by calcium mobilization assay; type: functional
[6] = molecular target: Metabotropic glutamate receptor 8 (Homo sapiens, UniProt O00222); assay: Positive allosteric modulation of mGluR8 (unknown origin) by calcium mobilization assay; type: functional
[7] = molecular target: Metabotropic glutamate receptor 2 (Homo sapiens, UniProt Q14416); assay: Positive allosteric modulation of mGluR2 (unknown origin) by calcium mobilization assay; type: functional
[8] = molecular target: Metabotropic glutamate receptor 3 (Homo sapiens, UniProt Q14832); assay: Positive allosteric modulation of mGluR3 (unknown origin) by calcium mobilization assay; type: functional
Metabotropic glutamate receptor 3, sequence (Q14832 whole entry): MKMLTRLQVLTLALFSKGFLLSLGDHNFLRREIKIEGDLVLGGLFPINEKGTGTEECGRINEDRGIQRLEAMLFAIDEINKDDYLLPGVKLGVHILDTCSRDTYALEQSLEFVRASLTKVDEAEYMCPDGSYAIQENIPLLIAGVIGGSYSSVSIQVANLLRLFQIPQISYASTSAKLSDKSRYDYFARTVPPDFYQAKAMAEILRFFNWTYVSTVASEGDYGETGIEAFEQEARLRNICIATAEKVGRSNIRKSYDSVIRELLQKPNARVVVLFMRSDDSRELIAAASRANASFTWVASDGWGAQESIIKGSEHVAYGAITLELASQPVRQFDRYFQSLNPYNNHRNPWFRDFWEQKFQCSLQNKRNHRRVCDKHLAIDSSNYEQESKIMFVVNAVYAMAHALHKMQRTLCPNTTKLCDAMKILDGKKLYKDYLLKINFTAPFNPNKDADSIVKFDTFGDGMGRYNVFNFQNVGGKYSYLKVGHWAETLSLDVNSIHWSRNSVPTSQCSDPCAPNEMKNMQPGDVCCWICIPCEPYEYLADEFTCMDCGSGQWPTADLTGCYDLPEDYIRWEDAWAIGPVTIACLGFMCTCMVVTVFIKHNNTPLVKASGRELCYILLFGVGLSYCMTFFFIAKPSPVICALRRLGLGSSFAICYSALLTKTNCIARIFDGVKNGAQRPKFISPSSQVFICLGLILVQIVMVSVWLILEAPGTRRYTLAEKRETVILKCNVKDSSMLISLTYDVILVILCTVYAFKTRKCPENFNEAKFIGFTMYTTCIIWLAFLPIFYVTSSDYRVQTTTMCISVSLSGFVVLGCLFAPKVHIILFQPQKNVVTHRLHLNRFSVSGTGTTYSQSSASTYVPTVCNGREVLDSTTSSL

[9] = Protein binding in rat plasma assessed as fraction unbound; type: ADME, cell-free

Metabotropic glutamate receptor 7, sequence (Q14831 whole entry): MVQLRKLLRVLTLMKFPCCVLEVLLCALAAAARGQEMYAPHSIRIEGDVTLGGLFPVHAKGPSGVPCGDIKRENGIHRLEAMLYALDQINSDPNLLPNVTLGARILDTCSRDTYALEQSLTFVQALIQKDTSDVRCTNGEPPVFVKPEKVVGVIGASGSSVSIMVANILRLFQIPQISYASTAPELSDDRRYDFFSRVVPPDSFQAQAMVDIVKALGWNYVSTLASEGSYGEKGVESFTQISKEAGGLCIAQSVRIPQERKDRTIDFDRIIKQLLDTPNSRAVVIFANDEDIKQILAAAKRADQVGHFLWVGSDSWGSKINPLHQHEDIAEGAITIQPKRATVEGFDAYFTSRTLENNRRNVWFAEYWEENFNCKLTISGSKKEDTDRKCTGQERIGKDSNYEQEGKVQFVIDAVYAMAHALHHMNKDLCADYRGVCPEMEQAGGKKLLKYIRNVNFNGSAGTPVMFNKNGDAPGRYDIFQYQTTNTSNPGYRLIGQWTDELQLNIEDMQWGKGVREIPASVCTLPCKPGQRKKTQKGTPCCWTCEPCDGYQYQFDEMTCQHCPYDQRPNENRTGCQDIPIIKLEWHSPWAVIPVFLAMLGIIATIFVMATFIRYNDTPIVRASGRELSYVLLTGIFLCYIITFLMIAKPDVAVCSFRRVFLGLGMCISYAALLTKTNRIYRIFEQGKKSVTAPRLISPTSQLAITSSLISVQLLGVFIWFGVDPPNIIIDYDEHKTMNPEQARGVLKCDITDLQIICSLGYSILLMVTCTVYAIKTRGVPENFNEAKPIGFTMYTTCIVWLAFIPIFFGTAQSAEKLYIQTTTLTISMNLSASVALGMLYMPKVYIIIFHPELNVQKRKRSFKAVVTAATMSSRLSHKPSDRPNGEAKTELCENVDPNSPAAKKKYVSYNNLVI

Structure (SMILES)	EC50 [1] [nM]	EC50 [2] [nM]	EC50 [3] [nM]	further results
Cc1cc(NC(=O)c2occc2C)c(F)cc1N1C(=O)c2ccccc2C1=O				fraction unbound [9]: 0.012
O=C(Nc1ccc(N2C(=O)C3C(C2=O)[C@H]2C=C[C@@H]3C2)cc1)c1ccccn1 (some centres not stated)		> 30000		
Cc1ccoc1C(=O)Nc1ccc(N2C(=O)c3ccccc3C2=O)c(C#N)c1		> 10000		
Cc1ccoc1C(=O)Nc1cc(F)c(N2C(=O)c3cccc(Cl)c3C2=O)c(F)c1F				fraction unbound [9]: 0.012
Cc1cc(N2C(=O)C3=C(CCCC3)C2=O)c(F)cc1NC(=O)c1ccco1	377	> 10000	89	
Cc1ccoc1C(=O)Nc1c(F)cc(N2C(=O)c3ccc(F)cc3C2=O)c(F)c1F		> 10000		

The next lines start with results.

EC50 [1] [nM]	EC50 [2] [nM]	EC50 [3] [nM]	Structure (SMILES)	further results
400	> 10000	229	Cc1cc(N2C(=O)C3=C(CCCC3)C2=O)c(F)cc1NC(=O)c1ccc(Cl)o1	
	> 10000		Cc1ccoc1C(=O)Nc1cc(F)c(N2C(=O)c3ccccc3C2=O)c(F)c1	
	> 10000		Cc1ccoc1C(=O)Nc1c(F)cc(N2C(=O)c3ccc(Cl)cc3C2=O)c(F)c1F	
> 30000	22	> 30000	Cc1ccc2c(c1)C(=O)N(c1ccc(NC(=O)c3occc3C)c(F)c1)C2=O	EC50 [4]: > 30000 nM; EC50 [5]: > 30000 nM; EC50 [6]: > 30000 nM; EC50 [7]: > 30000 nM; EC50 [8]: > 30000 nM
1340	> 10000	175	Cc1nc(C(=O)Nc2cc(F)c(N3C(=O)C4=C(CCCC4)C3=O)cc2C)cs1	
	> 10000		Cc1ccoc1C(=O)Nc1c(F)cc(N2C(=O)c3ccccc3C2=O)cc1F	
	> 10000		Cc1ccoc1C(=O)Nc1c(F)cc(N2C(=O)C3=C(CCCC3)C2=O)c(F)c1F	
	> 10000		Cc1ccoc1C(=O)Nc1c(F)cc(N2C(=O)c3cccc(F)c3C2=O)c(F)c1F	
	> 10000		Cc1ccoc1C(=O)Nc1c(F)cc(N2C(=O)[C@H]3CC=CC[C@H]3C2=O)c(F)c1F	
372	58	266	Cc1cc(N2C(=O)C3=C(CCCC3)C2=O)c(F)cc1NC(=O)c1occc1C	fraction unbound [9]: 0.012
